Experimental data taken from patent US20240415915A1, “TRADITIONAL CHINESE MEDICINE FERMENTED PREPARATION FOR PREVENTING AND TREATING GOUT, ITS PREPARATION METHOD AND APPLICATION” (priority 2023, published 2024).

Tested on: mice with hyperuricemia
Experiment: Effect on serum uric acid (UA) levels in mice with hyperuricemia
Type: in vivo
Conditions: 0.02 g/kg orally once a day, 7 days; hypoxanthine + potassium oxonate model; model group 768.30, blank 145.80
Source text: 60 mice (each mouse with a weight of (20±2) g) are taken and randomly divided into 6 groups, with 10 mice in each group, denoted as a blank group, a model group, a benzbromarone group, a high dose traditional Chinese medicine fermented preparation group, a medium dose traditional Chinese medicine fermented preparation group, and a low dose traditional Chinese medicine fermented preparation group. After 5 days of adaptive breeding, except for the blank group (injected with an equal volume of physiological saline), the mice in other groups are injected intraperitoneally with 0.3 g/kg/mouse of hypoxanthine +0.05 g/kg/mouse of potassium oxonate (i.e., oxonic acid potassium salt) daily for model replication, for 7 consecutive days. At the same time, the mice in the benzbromarone group are administered orally at a dose of 0.02 g/kg/mouse once a day, the mice in the high, medium and low dose traditional Chinese medicine fermented preparation groups are administered orally at a dose of 2 mL/kg/mouse, 1 mL/kg/mouse, and 0.5 mL/kg/mouse once, respectively, while the mice in the blank group and the model group are given physiological saline (1 mL/kg) orally, for 7 consecutive days. After 7 days, tail vein blood is collected from the mice in all groups, and then centrifuged to separate […] to obtain serum, the serum is taken to measure serum UA levels.

CCc1oc2ccccc2c1C(=O)c1cc(Br)c(O)c(Br)c1 [Benzbromarone, benzbromarone]
Serum UA level: 302.30 µmol/L
